Experimental data published in ChEMBL document CHEMBL3507680, “University of Dundee, Gates Library screen for HepG2 cell viability”.

Test: Human HepG2 cell viability assay in 384 well format
Assay type: toxicity, cell-based
Parameters: dose 125 nL, time 70.5 hour; concentration not given beside the values
Conditions: HepG2 cells, read-out: Inhibition

SMILES	cytotoxicity at 70.5 h [%]
Cn1nc(C2CCN(C(=O)Cc3ccsc3)CC2)c2cccnc21	-7.5
CN(C)C(=O)CS(=O)(=O)Cc1cc(Cl)c2c(c1)OCCCO2	6.99
Cc1cc(C(=O)N2CCCC2Cn2nc(C)cc2C)on1 (stereo not given)	1.85
Cn1ccnc1CN1CCC2(CCC(=O)N2CCN2CCCC2)CC1	-8.64
Cc1[nH]ncc1C(=O)N1CCCC(c2cc(C(F)(F)F)[nH]n2)C1 (stereo not given)	5.58
Cc1csc(CNC(=O)N2CCN(Cc3cc(C)on3)CC2)n1	-3.55
O=C(CCc1cscn1)NS(=O)(=O)c1ccc2c(c1)CCC2	8.97
Cc1ccc(CN2CCC3(CC2)CCN(C(=O)c2cccnc2)C3)o1	-5.87
CC(C)CCN(CCC(C)C)Cc1nc2c(cnn2C)c(=O)[nH]1	2.1
CCc1nc(C(=O)N2CCOCC2)nn1-c1ccccc1Cl	-3.34
O=C(Cc1ccc(Br)cc1)N1CC(S(=O)(=O)C2CCCCC2)C1	-4.51
Cc1noc(C(C)C)c1C(=O)NCCCOC(C)C	-4.85
CC(C)(C)c1cnc(CN2CCC(NC(=O)Nc3ccccc3)CC2)o1	15.4
CC1(C)Oc2ccc(NC(=O)c3ccc(=O)[nH]n3)cc2O1	-12.5
Cc1cc(C(=O)N2CCCC3(C=Cc4ccccc4O3)CC2)cc(=O)[nH]1 (stereo not given)	-7.57
CC(=O)N1CCN(C(=O)c2c(Cl)c3ccccc3n2C)CC1	-7.65
CNC(=O)CS(=O)(=O)C1CCN(S(=O)(=O)c2cccnc2)CC1	-3.91
O=C1CCCN1Cc1nnc2n1CCCN(C(=O)c1ccc[nH]1)C2	5.33
c1ccc2oc(CCCN3CCOC(Cn4cccn4)C3)nc2c1 (stereo not given)	0.524
COc1ccccc1OCC(=O)NS(=O)(=O)c1cc(F)ccc1F	-4.75
CN(Cc1cc(Cl)ccc1Cl)Cc1ncnn1C	-1.99
CS(=O)(=O)N1CCC(C(=O)NC(Cc2ccsc2)c2cccnc2)CC1 (stereo not given)	23.2
CCCC1CN(CCOc2ccccc2)C(=O)c2cccnc2O1 (stereo not given)	4.28

SMILES	cytotoxicity at 70.5 h [%]
Cc1c(C(=O)NC2=NCCS2)cnn1-c1ccc(Cl)cc1	-3.08
O=C(NCc1nc(NC2CCCC2)c2cc(Cl)ccc2n1)c1cscn1	-2.54
COCC(=O)N1CCC2(CC1)CC(N1CCN(C)CC1)CO2 (stereo not given)	14.5
COCCN(CCOC)C(=O)c1ccoc1C	-6.19
Cn1cc(-c2cc(C(F)F)n3nc(CCC(=O)O)nc3n2)cn1	-4.35
CCS(=O)(=O)N1CCCC(Cc2cnccn2)C1 (stereo not given)	-6.07
CCc1ncc(C(=O)NCCNc2ncnc3sccc23)s1	18.2
CO[C@H]1CC[C@H]2[C@H]1OCCN2C(=O)CCOc1ccccc1	-2.84
Cn1c(=O)[nH]c(=O)n2c(CC(=O)Nc3ccc(Cl)c(Cl)c3)cnc12	-12.5
CC(C)c1cc(CNC(=O)Nc2cc(F)cc(N3CCCC3)c2)on1	17.1
CN(C)CCN1C(=O)CO[C@@H]2CN(c3ncc(F)cn3)C[C@H]21	-6.29
CN(Cc1ccccc1)CC1(O)CCCN(CCC2CCCCC2)C1=O (stereo not given)	29.6
CC1(C)CC(N2Cc3nc(N)ncc3C2=O)CC(C)(C)N1	-8
O=C(CCN1C(=O)CCC1=O)Nc1ccc(Oc2ccc(Cl)cc2)nc1	-10.7
O=C(C1CC1)N1CCN2C[C@@H](CO)[C@H](c3ccccc3)[C@H]2C1	8.58
CC(C)COCC1CN(Cc2ccco2)Cc2ncn(C)c21 (stereo not given)	-6.93
Cc1noc(C(C)NC(=O)[C@@H](C)NC(=O)OC(C)(C)C)n1 (stereo not given in full)	-3.59
CO[C@H]1CN(C(=O)c2ccc(-c3cc[nH]n3)cc2)CC[C@H]1N	-8.35
Cc1ccc(C2COCCN2C(=O)c2ccsc2)o1 (stereo not given)	-8.5
CCc1cnc(CNC(=O)NCCc2ccc(O)cc2)s1	-1.61
CC(C)n1nccc1CN1Cc2nccn2CC1c1ccccc1 (stereo not given)	-7.71
CCc1ncnc2c1CCN(C(=O)Cc1ccccn1)CC2	-19.9
